Reference: patent publication US20250136602A1, “PROCESS FOR THE PREPARATION OF A PURE AMORPHOUS FORM OF UBROGEPANT” (MSN LABORATORIES PRIVATE LIMITED, F&D CENTER, priority 2021, published 2025)

Tests used:
Assay type in all cases: physicochemical
[1] = Polymorphic stress study of amorphous Ubrogepant
Protocol: Ninth aspect of the first embodiment of the present invention, amorphous Ubrogepant is also stable under below Polymorphic stress study conditions:
(§1) The PXRD analysis of compound of the present invention was carried out by using BRUKER-Axis/D8 ADVANCE (DAVINCI) X-Ray diffractometer using CuKα radiation of wavelength 1.5406 A°.

[2] = Accelerated stability of amorphous Ubrogepant (HPLC purity, PXRD); details: accelerated stability at 40 ± 2° C. under 75 ± 5% humidity condition upto 6 months
Protocol: (§2) Eighth aspect of the first embodiment, the accelerated and long-term stability data of amorphous Ubrogepant of formula-1 is outlined in Table-1 as follows: […]
(§3) Ubrogepant and its related substances were analyzed by HPLC with the following chromatographic conditions: Apparatus: A liquid chromatographic system is to be equipped with variable wavelength UV-Detector and integrator; Column: Xbridge C18 150×4.6 mm, 3.5 μm Ghost-Buster column: Ghost buster 50 mm×4.6 mm; Wavelength: 210 nm; Column temperature: 25° C.; Injection volume: 5 μL; Elution: Gradient; Diluent: Acetonitrile: Water; Needle wash: Diluent.
as §1

[3] = Long term stability of amorphous Ubrogepant (HPLC purity, PXRD); details: long term stability at 25 ± 2° C. under 60 ± 5% humidity condition upto 6 months
Protocol: as §2, §3, §1

With `C[C@@H]1[C@H](c2ccccc2)C[C@H](NC(=O)c2cnc3c(c2)C[C@@]2(C3)C(=O)Nc3ncccc32)C(=O)N1CC(F)(F)F` [Amorphous Ubrogepant, (3′S)—N-((3S,5S,6R)-6-methyl-2-oxo-5-phenyl-1-(2,2,2-trifluoroethyl)piperidin-3-yl)-2′-oxo-1′,2′,5,7-tetrahydrospiro [cyclopenta[b]pyridine-6,3′-pyrrolo[2,3-b]pyridine]-3-carboxamide] as the compound, how does the “Result (polymorphic stability)” value ([1]; hygroscopicity analysis (75 ± 5% RH), 24 hours) read?
Its value is “stable”.

What about the “Result (polymorphic stability)” value ([1]; stress study under 10 tons pressure, 3 mins) of the same compound?
Its value is “stable”.

And the “Result (polymorphic stability)” value ([1]; thermal analysis at 60° ± 2° C., 24 hours)?
The value was “stable”.

What about the “Result (polymorphic stability)” value ([1]; under UV light at 254 nm, 24 hours) of the same compound?
The value was “stable”.

What about the “PXRD Result” value [2] of the same compound?
Its value is “stable”.

What about the “Purity by HPLC” value [2] of the same compound?
Its value is >99.75%.

What about the “PXRD Result” value [3] of the same compound?
The value was “stable”.

What about the “Purity by HPLC” value [3] of the same compound?
Its value is >99.75%.
